In test [1] the test system is Influenza A/Singapore/6/86(H1N1). The test can be described thus: Immunogenicity study of influenza virosome with flavonoids; humoral response by ELISA. In kind it is in vivo. The following applies: Balb/c mice, subcutaneous, 1 μg Influenza A virosome with 1 or 10 μg adjuvant, day 0 and 21, blood after 35 days; compared to other analysed flavonoids and virosomes without adjuvant.

The next test deals with PCSK9 antigenic peptide. The test can be described thus: Immunogenicity study of PCSK9 vaccine; humoral response by ELISA. In kind it is in vivo, mice. Particulars: beta-sitosterol used along with alum; statement on Table 6. How it is done:
The results are measured in ELISA units.
PCSK9 vaccine was prepared as described in WIPO publication WO 2011/027257. Here, ‘VR_9.5’ as decribed in WO 2011/027257 has been used as PCSK9 peptide for the current experiment. Other disclosed PCSK9 peptide can also be used as PCSK9 construct. The prepared PCSK9 construct was conjugated with diphtheria toxoid as an immunogenic carrier. The said preparation was used as an antigen preparation for further study. The conjugated PCSK9 antigen was formulated with alum and beta-sitosterol. […] Blood samples were collected at day 63 for the analysis of humoral response by ELISA. Humoral response analysed by ELISA is shown in below table. […] Table 6 provided here below for the results obtained by ELISA.
(In general: In an ELISA, binding on a coated surface is turned into a signal by an enzyme label.)

Each structure is given as a SMILES string. Entries after “also recorded” stand apart in the source; their conditions may differ.

On to `CC[C@H](CC[C@@H](C)[C@H]1CC[C@H]2[C@@H]3CC=C4C[C@@H](O)CC[C@]4(C)[C@H]3CC[C@]12C)C(C)C` [beta-sitosterol], for which the “immune response (serum titers of total IgG, IgG2a and IgG1 antibody, FIG. 1-3)” value in test [1] is “higher immune response”. Also, the “immune response against PCSK9 antigenic peptide” value in the test with PCSK9 antigenic peptide is reported as “higher immune response; also recorded: synergistic effect”.

The values above are taken from patent US20180311340A1, “NEW ADJUVANT AND VACCINE COMPOSITION CONTAINING THE SAME” (priority 2015, published 2018).
